{
  "source": "patent US20080287537A1",
  "about": "“Composition, Particularly a Cosmetic Composition, Comprising ((Dialkylamino)Alkoxy) Ethanol Ester” (L'OREAL, priority 2004, published 2008)",
  "key": {"SKNSH nerve cells": {"tested_on": "SKNSH nerve cells", "assay": "Inhibition of calcium flux (IC50Ca2+) on SKNSH nerve cells", "assay_type": "cell-based", "conditions": "Homo sapiens, SK-N-SH, concentration which inhibits release of Ca2+ by 50%", "text": "(§1) In order for a substance to be recognized as a calcium-channel inhibitor, it must be able to reduce the intracellular calcium concentration or reduce the binding of calcium to intracellular proteins, such as, for example, calmodulin, such as is described in particular by Galizzi, J. P. et al., J. Biol. Chem., 1987, 262 p. 6947; by Y. Okamiya et al., Eur. J. Pharmacol., 1991, 205, p. 49; by J. A. Wagner et al., J. Neurosci., 1988, 8, p. 3354; by H. R. Lee et al., Life Sci., 1984, 35, p. 721; by Schoemaker H. and Lauger S., Eur. J. Pharmacol., 1985, 111, p. 273 or by I. J. Reynolds et al., J. Pharmacol. Exp. Ther., 1986, 237, p. 731.\n(§2) The Applicant determined the IC50Ca2+ for inhibition of calcium flux of three compounds according to the invention using the protocol shown in these documents. IC50Ca2+ represents the concentration which inhibits release of Ca^2+ by 50%."}, "[1]": {"tested_on": "Ca2+ channel (L, verapamil site)", "assay": "Competitive inhibition of [3H]-(-)-D888 binding to L-type calcium channels, rat cerebral cortex homogenates", "conditions": "1 μM in DMSO; [3H]-(-)-D888 0.5 nM; 60 min/22° C.", "text": "The experimental conditions are as follows:\nD888, which is [^3H]-(−)-desmethoxyverapamil, acts as radiolabelled specific ligand and D600, which is (±)-methoxyverapamil hydrochloride, acts as reference molecule.\nThe specific binding of a ligand (labelled D888) to the receptors (L-type calcium channels, verapamil site) is defined as the difference between the total binding and the non-specific binding determined in the presence of an excess of cold (nonradioactive) ligand. The results are expressed as percentage of inhibition of the specific binding of the control in the presence of the compound tested."}, "[2]": {"tested_on": "cells resulting from HFDa skin fibroblasts", "assay": "Inhibition of calcium flux (IC50Ca2+) on cells from HFDa skin fibroblasts", "assay_type": "cell-based", "conditions": "Skin fibroblast, concentration which inhibits release of Ca2+ by 50%", "text": "as §1, §2"}, "[3]": {"tested_on": "human striated muscle cells innervated with explants of rat embryo spinal ganglia and spinal cord", "assay": "Nerve/muscle coculture model, contractions of muscle fibres", "assay_type": "cell-based", "conditions": "earlier demonstration by the Applicant Company, concentration not given", "protocol": "The mixture of compounds of Example 2 was tested on a model of nerve/muscle coculture which makes it possible to recreate a motor arc by innervating human striated muscle cells with explants of rat embryo spinal ganglia and spinal cord.\nHuman muscle cells, resulting from samples of striated muscles from a healthy donor, are inoculated in wells with a cross section of 1.8 cm^2 (24-well culture dishes). After culturing for 10 days, these cells form a monolayer and fuse. At this stage, spinal cord explants from rat embryos aged 13 days comprising the spinal ganglia are deposited on the culture.\nThe growth of the neurites is visible outside the spinal cord explant after culturing for one day. The first contractions of the muscle fibres are observed after coculturing for 5 to 6 days and, after 3 weeks, all the muscle fibres in the vicinity of the explants are contracting.\nThe cocultures are used after 21 days, when the muscle fibres are striated and have mature differentiated neuromuscular junctions.\nA muscle fibre having regular contractions (at least 60 contractions per minute) is then selected from three different culture wells and the number of contractions is counted over 30 seconds. […] At the end of incubation, the number of contractions is again counted over 30 seconds. […]"}, "[4]": {"assay": "Antiwrinkle activity in vivo", "conditions": "earlier demonstration, no details"}},
  "data": [
    {"smiles": "CCCCCCCCCC(=O)OCCOCCN(CC)CC", "note": "[((Diethylamino)ethoxy)ethyl decanoate]", "values": [
      {"measurement": "IC50", "setting": "SKNSH nerve cells", "result": 26, "unit": "µM"}
    ]},
    {"smiles": "CCCCCCCCCCCC(=O)OCCOCCN(CC)CC", "note": "[((Diethylamino)ethoxy)ethyl laurate, ((diethylamino)ethoxy)ethyl laurate]", "values": [
      {"measurement": "percentage of inhibition of the specific binding of the control", "setting": "[1]", "result": 31, "unit": "%"},
      {"measurement": "IC50", "setting": "[2]", "result": 13, "unit": "µM"},
      {"measurement": "IC50", "setting": "SKNSH nerve cells", "result": 11, "unit": "µM"}
    ]},
    {"smiles": "CCCCCCCCCCCCCCCC(=O)OCCOCCN(CC)CC", "note": "[((Diethylamino)ethoxy)ethyl palmitate]", "values": [
      {"measurement": "IC50", "setting": "[2]", "result": 14, "unit": "µM"},
      {"measurement": "IC50", "setting": "SKNSH nerve cells", "result": 24, "unit": "µM"}
    ]},
    {"smiles": "CCCCCCCCCCCCCCCCCC(=O)OCCOCCN(CC)CC", "note": "[((Diethylamino)ethoxy)ethyl stearate]", "values": [
      {"measurement": "IC50", "setting": "SKNSH nerve cells", "result": 37, "unit": "µM"}
    ]},
    {"smiles": "CN1C(=O)CN=C(c2ccccc2)c2cc(Cl)ccc21", "note": "[diazepam]", "values": [
      {"measurement": "contractions of the muscle fibres", "setting": "[3]", "result": "inhibited the contractions of the muscle fibres"},
      {"measurement": "antiwrinkle activity", "setting": "[4]", "result": "demonstrated in vivo"}
    ]}
  ]
}
